Reference: patent US20240261296A1, “THERAPEUTIC MODALITIES FOR INHIBITING PANCREATIC BETA CELL IMPAIRMENT AND TREATING DIABETES” (Hadasit Medical Research Serices & Development Ltd., priority 2021, published 2024)
“Also recorded” adds a separate entry of the source.

What was measured:
Assay type in all cases: in vivo
[1] = liver function parameters in sera of C57Bl/6 mice
Description: Blood was collected by cardiac puncture, and 50 μl were collected in EDTA containing tubes for cell blood count (CBC). Further, 200-300 μl of blood was centrifuged and serum was collected for biochemical analysis. C. Effects of orally administered compounds on liver function parameters: The blood levels of albumin, the liver aspartate transaminase (AST) and alanine transaminase (ALT) were measured in the sera obtained from mice 24 h after the third gavage with saline/DMSO (Control Saline); 3 mg/kg/day Compound C5; Compound C13 or the EP3 antagonist L-798106. Results are presented in FIG. 11A for Albumin, FIG. 11B for AST, and FIG. 11C for ALT. […] All p-values >0.05. C. Liver function parameters: Blood levels of albumin (FIG. 14A), liver transaminases: aspartate transaminase (AST, FIG. 14B) and alanine transaminase (ALT, FIG. 14C), as well as bilirubin, were measured in sera obtained from mice 24 h after injection of either Saline/DMSO (Control Saline); C5; C13 or L-798106. […] Typically, this biomarker levels rise with liver injury and help monitor function under drugs treatment. Here a decrease in the levels of ALT in the serum of L-798106- and C13-treated mice, is not considered to indicate liver damage. Bilirubin<1 μM was measured in all test groups.

[2] = blood insulin levels in C57Bl/6 mice (ELISA)
Description: B. For measurements of blood insulin levels, insulin was measured in blood obtained from the vein tail of C57Bl/6 mice (n=8/group) 24 h (t24) after the third gavage with vehicle (Control-Saline); 3 mg/kg/day Compound C5; Compound C13 or the EP3 antagonist L-798106 (total 9 mg/kg) using ELISA mouse insulin kit (Mercodia). Five samples randomly chosen from each group were measured.
B. Blood insulin levels: Insulin was measured in sera obtained from mice injected with either Saline/DMSO (control), Compound 5 (C5); Compound C13 (C13) or L-798106, using ELISA mouse insulin kit according to the manufacturer's instructions (Mercodia). Five samples randomly chosen from each group were measured. […] Similarly, to normal blood glucose, the mice keep their blood insulin concentrations within the normal range.

[3] = test system: db/db mice; assay: intraperitoneal glucose tolerance test (IPGTT)
Description: Lepr^db/db homozygotes (db/db) and heterozygote Lepr^db/+ (wild type) mice were treated daily with 2.5 mg/kg/day oral administration of the Vehicle, the commercial EP3 antagonist L-798106 and the compounds C5 and C13 for 8 weeks, as described in Example 9. A glucose tolerance test (Intraperitoneal glucose tolerance test, IPGTT) was performed following four weeks and eight weeks of the onset of treatment, as follows. Glucose (1 g/kg) was injected following 8 hours of fasting, and blood glucose was measured at baseline and at 30-, 60-, 90- and 120-minutes post glucose administration.
Heterozygote (wild type) and diabetic db/db mice were treated daily with the Vehicle, L-798106 and the compounds C17 and C20 for 8 weeks, essentially as described in Example 9. A glucose tolerance test (IPGTT) was performed essentially as described in Example 10.

[4] = test system: db/db mice; assay: fasting blood glucose (FBG) in db/db and control mice
Description: Fasting blood glucose (FBG) concentrations in each of the treated groups were also compared following 4- and 8-weeks treatment as described in Example 9. Results for the 4-weeks treatment of the control mice and the db/db mice are presented in FIGS. 20A-20B respectively and for the 8-weeks treatment of the control mice and the db/db mice are presented in FIGS. 20C-20D, respectively; each treatment is graphically represented as described in Example 9.
FBG concentrations. FBG concentrations in each of the treated groups, vehicle, L-798106, C17 and C20, was compared following 4- and 8-weeks treatment essentially as described in Example 11. Results for the 4-weeks treatment of the control mice and the db/db mice are presented in FIGS. 29A-29B respectively and for the 8-weeks treatment of the control mice and the db/db mice are presented in FIGS. 29C-29D, in which, each treatment is graphically represented as described in Example 14, The numbers of tested mice are as follows: control mice (n=10-15), db/db mice (n=10).

[5] = lipid parameters in sera of db/db mice; details: 8 weeks of treatment; for blood triglyceride levels: vs vehicle
Description: At the end of the 8 week-long period of treatment as described in Example 9, mice were sacrificed and blood samples were collected, and analyzed for different parameters as detailed below.
Lipid parameters in sera. Mice lipid profiles were assessed by measuring triglycerides and total cholesterol levels in the sera of the treated mice. The results for the triglycerides and cholesterol levels in db/db mice are presented in FIGS. 24A-24B respectively, in which, each treatment is graphically represented as described in Example 9, for each group n=5, data is presented ±SEM. Statistical analysis between each treated-group compared to vehicle was performed p-value for C5=0.06, for C13=0.02 and p >0.05 for the rest of the tests.

[6] = test system: db/db mice; assay: Insulin Tolerance Test (ITT); details: 8 weeks oral treatment; for glucose levels after insulin injection (insulin sensitivity), db/db mice: 0.75 U/kg insulin, all time points, vs vehicle
Description: An Insulin Tolerance Test (ITT) was conducted to determine the effect of the test compounds on insulin resistance, following oral administration of Vehicle or the tested compounds as described in Example 9. To this end, the different treated groups were further subjected to a subsequent 5-hour fast and then injected with 0.75 U/kg insulin. Blood glucose was measured at the time of insulin injection (baseline level) and at the indicated time intervals thereafter. Blood glucose levels and AUC of the wild-type mice are presented in FIGS. 19A-19B respectively, and blood glucose levels and AUC of the db/db mice are presented in FIGS. 19C-19D respectively. The different test groups as presented in FIGS. 19A-19D are represented as described in Example 9.
To determine the effect of the C17 and C20 compounds on insulin resistance, an ITT was conducted essentially as described in Example 11. Blood glucose levels and AUC of the wild-type mice are presented in FIGS. 27A-27B respectively (n=5-15), and blood glucose levels and AUC of the db/db mice are presented in FIGS. 27C-27D respectively (n=5-10). The different test groups as presented in FIGS. 27A-27D are represented as described in Example 14.

[7] = oral 3 mg/kg/day, 24 h after third gavage
[8] = oral 3 mg/kg/day (total 9 mg/kg), 24 h after third gavage
[9] = 8 weeks oral 2.5 mg/kg/day, glucose 1 g/kg, all time points, vs vehicle
[10] = 4 weeks of treatment, vs vehicle

Row | SMILES | alanine transaminase (ALT) ([1]; IP, 24 h after injection) | albumin ([1]; IP, 24 h after injection) | aspartate transaminase (AST) ([1]; IP, 24 h after injection) | alanine transaminase (ALT) [1, 7] | albumin [1, 7] | aspartate transaminase (AST) [1, 7] | blood insulin levels ([2]; IP single dose 3 mg/kg) | blood insulin levels [2, 8] | hyperglycemia in IPGTT, db/db mice [3, 9] | hyperglycemia in IPGTT, db/db mice ([3]; four weeks of treatment) | FBG in db/db mice [4, 10] | FBG in control mice ([4]; 8 weeks of treatment) | total cholesterol levels [5] | blood triglyceride levels [5] | glucose levels after insulin injection (insulin sensitivity), db/db mice [6] | FBG in db/db mice ([4]; 8 weeks of treatment) | hyperglycemia in IPGTT, db/db mice ([3]; 8 weeks oral 2.5 mg/kg/day, glucose 1 g/kg, all time points, vs vehicle, 2.5 mg/kg/day) | baseline glucose levels in ITT ([6]; 5-hour fast)
1 | CC[C@H](C)c1ccc(S(=O)(=O)Nc2ccccc2C(=O)N2C[C@@H](C)O[C@@H](C)C2)cc1 [Compound C5, 4-((S)-sec-butyl)-N-(2-((2S,6R)-2,6-dimethylmorpholine-4-carbonyl)phenyl)benzenesulfonamide] | no statistically significant differences | no statistically significant differences | no statistically significant differences | no statistically significant differences | no statistically significant differences | no statistically significant differences | no statistically significant differences | no statistically significant differences | significantly alleviated hyperglycemia | reduction of hyperglycemia could already be seen | significant decrease in FBG | decrease in FBG in the control mice, although to a much lesser extent | No effect on total cholesterol levels | significant reduction | Improve Insulin Sensitivity |  |  | 
2 | CC[C@@H]1CC[C@H](C)N1C(=O)c1cccc(NS(=O)(=O)c2ccc(C)c(F)c2)c1 [Compound C13, N-(3-((2R,5S)-2-ethyl-5-methylpyrrolidine-1-carbonyl)phenyl)-3-fluoro-4-methylbenzenesulfonamide] | lower concentrations of alanine transaminase | no statistically significant differences | no statistically significant differences | no statistically significant differences | no statistically significant differences | no statistically significant differences | no statistically significant differences | no statistically significant differences | significantly alleviated hyperglycemia | reduction of hyperglycemia could already be seen | significant decrease in FBG | decrease in FBG in the control mice, although to a much lesser extent | No effect on total cholesterol levels | significant reduction | Improve Insulin Sensitivity | significantly more pronounced |  | 
3 | COc1ccc(Br)cc1S(=O)(=O)NC(=O)/C=C/c1ccccc1Cc1ccc2ccccc2c1 [Compound L-798106, (2E)-N-[(5-bromo-2-methoxyphenyl)sulfonyl]-3-[2-(2-naphthalenylmethyl)phenyl]-2-propenamide, reference compound] | lower concentrations of alanine transaminase | no statistically significant differences | no statistically significant differences | no statistically significant differences | no statistically significant differences | no statistically significant differences | no statistically significant differences | no statistically significant differences |  | reduction of hyperglycemia could already be seen | significant decrease in FBG | decrease in FBG in the control mice, although to a much lesser extent | No effect on total cholesterol levels | did not exhibit a statistically-significant reduction | significant decrease in glucose levels | significantly more pronounced | significantly alleviated hyperglycemia; also recorded: appeared to be statistically more significant | reduced baseline glucose levels
